Patent US10800791B2, “Triazole ACC inhibitors and uses thereof” (Gilead Apollo, LLC, priority 2015, dated 2020)
Converted amounts (≈) assume the structure as drawn. Where two headings read alike, the source gives them in different places.

How the values were obtained:
fungal (fACC2) = fungal (fACC2) (UniProt Q00955); settings: read-out: fACC2 (in vitro ACC2 Inhibition Assay, IC50), ADP-Glo, 5 nM ACC2, 20 μM ATP, 20 μM acetyl-CoA
Description: An exemplary procedure for the in vitro ACC inhibition assay, which can be used to determine the inhibitory action of compounds of the invention toward either human (hACC2) or fungal (fACC2), follows. The ADP-Glo™ Kinase Assay kit from Promega was used. The ADP-Glo™ Kinase Assay is a luminescent ADP detection assay to measure enzymatic activity by quantifying the amount of ADP produced during an enzyme reaction. The assay is performed in two steps; first, after the enzyme reaction, an equal volume of ADP-Glo™ Reagent is added to terminate the reaction and deplete the remaining ATP. Second, the Kinase Detection Reagent is added to simultaneously convert ADP to ATP and allow the newly synthesized ATP to be measured using a luciferase/luciferin reaction. Luminescence can be correlated to ADP concentrations by using an ATP-to-ADP conversion curve. […] 50 μL of the compound being tested (600 μM in DMSO) was added to a 384-well dilution plate. The compound was diluted 1:3 in succession in DMSO for each row for 11 wells. 0.5 μL ACC2 working solution was added to 384-well white Optiplate assay plate. 0.5 μL diluted compound solution in each column from step 2 was added to assay plate, each row containing 2 replicates. […] The plates were incubated at room temperature for 15 minutes. 5 μL substrate working solution was added to each well to initiate reaction. Final ACC2 reaction concentrations consist of: 5 nM ACC2, 20 μM ATP, 20 μM acetyl-CoA, 12 mM NaHCO3, 0.01% Brij35, 2 mM DTT, 5% DMSO, test compound concentrations: 30 μM, 10 μM, 3.33 μM, 1.11 μM, 0.37 μM, 0.123 μM, 0.0411 μM, 0.0137 μM, 0.00457 μM, 0.00152 μM, and 0.00051 μM. Plates were incubated at room temperature for 60 minutes. 10 μL ADP glo reagent was added. Plates were incubated at room temperature for 40 minutes. 20 μL kinase detection reagent was added. Plates were incubated at room temperature for 40 minutes, and then read on a Perkin Elmer EnVision 2104 plate reader for luminescence as Relative Light Units (RLU).
Data for each concentration, as well as the positive and negative controls were averaged, and the standard deviation calculated. Percent inhibition was calculated by the formula: 100×(average negative control−compound)/(average negative control−average positive control). The IC50 for each compound was calculated by fitting the data with a non-linear regression equation: Y=Bottom+(Top−Bottom)/(1+10 ((Log IC50−X)*HillSlope)), where X is the log of compound concentration and Y is percent inhibition.

C. krusei = test: Antifungal Activity Assay (broth microtiter MIC), C. krusei; format: cell-based, Candida krusei; settings: Pichia kudriavzevii, ATCC6258, 48 h
Summary of the method: (§1)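 Colonies from 24 h Sabouraud dextrose agar plates (35° C) are suspended in RPMI 1640+MOPS and diluted to give 2.5×10^3 CFU/mL in the wells. Plates are set up per CLSI M27-A3. Visual MIC is recorded at 48 h.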

C. parapsilosis = test: Antifungal Activity Assay (broth microtiter MIC), C. parapsilosis; format: cell-based, Candida parapsilosis; settings: Lodderomyces parapsilosis, ATCC22019, 48 h
Summary of the method: as §1

C. albicans = test: Antifungal Activity Assay (broth microtiter MIC), C. albicans; format: cell-based, Candida albicans; settings: Candida albicans, ATCC90028, 48 h
Summary of the method: as §1

human (hACC2) = human (hACC2) (Homo sapiens, UniProt O00763); test: In vitro ACC inhibition assay (ADP-Glo), hACC2; format: biochemical; settings: 5 nM ACC2, 20 μM ATP, 20 μM acetyl-CoA
Chain of human (hACC2) (O00763 whole entry): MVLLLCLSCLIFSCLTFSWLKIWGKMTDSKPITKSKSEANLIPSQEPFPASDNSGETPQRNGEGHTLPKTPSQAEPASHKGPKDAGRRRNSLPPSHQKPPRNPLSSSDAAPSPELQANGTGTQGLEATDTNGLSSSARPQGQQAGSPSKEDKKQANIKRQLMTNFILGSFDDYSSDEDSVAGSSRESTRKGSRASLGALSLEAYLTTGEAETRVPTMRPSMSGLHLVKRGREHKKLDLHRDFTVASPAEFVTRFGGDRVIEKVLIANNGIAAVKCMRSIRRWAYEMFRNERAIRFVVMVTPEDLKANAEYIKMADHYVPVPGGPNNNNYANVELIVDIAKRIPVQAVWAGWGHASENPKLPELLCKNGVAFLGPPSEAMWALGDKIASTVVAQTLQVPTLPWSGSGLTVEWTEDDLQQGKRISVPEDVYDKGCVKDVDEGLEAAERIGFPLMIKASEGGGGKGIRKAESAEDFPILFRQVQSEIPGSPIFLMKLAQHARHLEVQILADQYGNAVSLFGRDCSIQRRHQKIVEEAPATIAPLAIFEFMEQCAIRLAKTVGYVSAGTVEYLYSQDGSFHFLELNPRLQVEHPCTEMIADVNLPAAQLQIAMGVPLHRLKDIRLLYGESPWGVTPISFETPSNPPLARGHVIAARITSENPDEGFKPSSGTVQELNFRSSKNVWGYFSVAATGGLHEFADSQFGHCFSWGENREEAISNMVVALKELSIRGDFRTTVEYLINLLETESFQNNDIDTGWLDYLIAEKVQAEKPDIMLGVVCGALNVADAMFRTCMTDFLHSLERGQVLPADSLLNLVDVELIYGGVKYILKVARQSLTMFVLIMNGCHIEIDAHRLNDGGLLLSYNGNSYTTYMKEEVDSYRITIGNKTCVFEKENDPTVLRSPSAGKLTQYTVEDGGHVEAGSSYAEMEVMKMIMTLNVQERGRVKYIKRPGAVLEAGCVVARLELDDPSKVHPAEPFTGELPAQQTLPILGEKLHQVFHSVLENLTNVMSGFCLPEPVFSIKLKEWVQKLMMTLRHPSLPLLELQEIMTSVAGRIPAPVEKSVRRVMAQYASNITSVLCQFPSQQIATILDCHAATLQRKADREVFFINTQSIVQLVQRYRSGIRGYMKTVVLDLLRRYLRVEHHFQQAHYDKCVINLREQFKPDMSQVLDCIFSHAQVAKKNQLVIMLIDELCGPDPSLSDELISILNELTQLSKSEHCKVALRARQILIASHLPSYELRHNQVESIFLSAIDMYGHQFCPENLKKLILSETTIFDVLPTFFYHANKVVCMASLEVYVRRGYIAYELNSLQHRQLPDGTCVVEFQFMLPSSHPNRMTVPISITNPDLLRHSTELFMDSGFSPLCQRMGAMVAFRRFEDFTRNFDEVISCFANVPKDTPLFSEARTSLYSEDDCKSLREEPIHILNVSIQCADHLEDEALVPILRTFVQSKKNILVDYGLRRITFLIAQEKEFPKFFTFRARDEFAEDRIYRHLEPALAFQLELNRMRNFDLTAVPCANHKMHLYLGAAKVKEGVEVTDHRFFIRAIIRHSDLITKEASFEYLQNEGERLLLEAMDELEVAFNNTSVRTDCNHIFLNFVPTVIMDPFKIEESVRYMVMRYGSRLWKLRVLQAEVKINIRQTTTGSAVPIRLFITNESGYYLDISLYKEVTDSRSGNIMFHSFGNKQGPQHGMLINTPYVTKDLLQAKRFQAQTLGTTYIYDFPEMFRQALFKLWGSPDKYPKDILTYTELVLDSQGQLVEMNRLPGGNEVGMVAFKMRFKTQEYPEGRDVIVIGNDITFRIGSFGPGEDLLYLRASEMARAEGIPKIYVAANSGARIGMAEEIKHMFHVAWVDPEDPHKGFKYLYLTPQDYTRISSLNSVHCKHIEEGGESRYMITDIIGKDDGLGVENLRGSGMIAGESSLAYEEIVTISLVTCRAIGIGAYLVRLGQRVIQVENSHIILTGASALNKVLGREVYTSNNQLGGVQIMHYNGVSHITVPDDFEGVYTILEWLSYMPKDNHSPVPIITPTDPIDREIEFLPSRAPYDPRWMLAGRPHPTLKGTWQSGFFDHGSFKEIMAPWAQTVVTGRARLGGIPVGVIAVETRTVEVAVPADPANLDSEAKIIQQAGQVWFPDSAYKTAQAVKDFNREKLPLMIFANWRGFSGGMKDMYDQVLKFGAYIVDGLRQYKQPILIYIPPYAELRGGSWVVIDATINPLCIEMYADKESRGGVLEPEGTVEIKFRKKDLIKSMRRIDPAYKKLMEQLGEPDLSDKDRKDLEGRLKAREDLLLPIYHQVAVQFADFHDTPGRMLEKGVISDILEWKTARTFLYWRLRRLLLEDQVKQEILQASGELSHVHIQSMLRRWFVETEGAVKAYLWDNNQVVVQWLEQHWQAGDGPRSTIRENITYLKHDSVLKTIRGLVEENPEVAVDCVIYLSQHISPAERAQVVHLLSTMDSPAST
Description: The detailed procedure is as follows. […] 10 μL ADP glo reagent was added. […] 20 μL kinase detection reagent was added.

[1] = Table 3a, ATCC 6258, 3 replicates, MIC recorded at 48 h, read-out: MIC, C. krusei ATCC 6258
[2] = Table 3b (additional results), ATCC 6258, 3 replicates, MIC recorded at 48 h, read-out: MIC, C. krusei ATCC 6258
[3] = Table 3a, ATCC 22019, 3 replicates, MIC recorded at 48 h, read-out: MIC, C. parapsilosis ATCC 22019
[4] = Table 3b (additional results), ATCC 22019, 3 replicates, MIC recorded at 48 h, read-out: MIC, C. parapsilosis ATCC 22019
[5] = Table 3a, ATCC 90028, 3 replicates, MIC recorded at 48 h, read-out: MIC, C. albicans ATCC 90028
[6] = Table 3b (additional results), ATCC 90028, 3 replicates, MIC recorded at 48 h, read-out: MIC, C. albicans ATCC 90028
[7] = read-out: MIC, C. krusei ATCC 6258, Table 3b (additional results), 3 replicates, MIC recorded at 48 h
[8] = read-out: MIC, C. parapsilosis ATCC 22019, Table 3b (additional results), 3 replicates, MIC recorded at 48 h
[9] = read-out: MIC, C. albicans ATCC 90028, Table 3b (additional results), 3 replicates, MIC recorded at 48 h
[10] = read-out: MIC, C. krusei ATCC 6258, Table 3a, 3 replicates, MIC recorded at 48 h
[11] = read-out: MIC, C. parapsilosis ATCC 22019, Table 3a, 3 replicates, MIC recorded at 48 h
[12] = read-out: MIC, C. albicans ATCC 90028, Table 3a, 3 replicates, MIC recorded at 48 h

Chain of fungal (fACC2) (Q00955 whole entry): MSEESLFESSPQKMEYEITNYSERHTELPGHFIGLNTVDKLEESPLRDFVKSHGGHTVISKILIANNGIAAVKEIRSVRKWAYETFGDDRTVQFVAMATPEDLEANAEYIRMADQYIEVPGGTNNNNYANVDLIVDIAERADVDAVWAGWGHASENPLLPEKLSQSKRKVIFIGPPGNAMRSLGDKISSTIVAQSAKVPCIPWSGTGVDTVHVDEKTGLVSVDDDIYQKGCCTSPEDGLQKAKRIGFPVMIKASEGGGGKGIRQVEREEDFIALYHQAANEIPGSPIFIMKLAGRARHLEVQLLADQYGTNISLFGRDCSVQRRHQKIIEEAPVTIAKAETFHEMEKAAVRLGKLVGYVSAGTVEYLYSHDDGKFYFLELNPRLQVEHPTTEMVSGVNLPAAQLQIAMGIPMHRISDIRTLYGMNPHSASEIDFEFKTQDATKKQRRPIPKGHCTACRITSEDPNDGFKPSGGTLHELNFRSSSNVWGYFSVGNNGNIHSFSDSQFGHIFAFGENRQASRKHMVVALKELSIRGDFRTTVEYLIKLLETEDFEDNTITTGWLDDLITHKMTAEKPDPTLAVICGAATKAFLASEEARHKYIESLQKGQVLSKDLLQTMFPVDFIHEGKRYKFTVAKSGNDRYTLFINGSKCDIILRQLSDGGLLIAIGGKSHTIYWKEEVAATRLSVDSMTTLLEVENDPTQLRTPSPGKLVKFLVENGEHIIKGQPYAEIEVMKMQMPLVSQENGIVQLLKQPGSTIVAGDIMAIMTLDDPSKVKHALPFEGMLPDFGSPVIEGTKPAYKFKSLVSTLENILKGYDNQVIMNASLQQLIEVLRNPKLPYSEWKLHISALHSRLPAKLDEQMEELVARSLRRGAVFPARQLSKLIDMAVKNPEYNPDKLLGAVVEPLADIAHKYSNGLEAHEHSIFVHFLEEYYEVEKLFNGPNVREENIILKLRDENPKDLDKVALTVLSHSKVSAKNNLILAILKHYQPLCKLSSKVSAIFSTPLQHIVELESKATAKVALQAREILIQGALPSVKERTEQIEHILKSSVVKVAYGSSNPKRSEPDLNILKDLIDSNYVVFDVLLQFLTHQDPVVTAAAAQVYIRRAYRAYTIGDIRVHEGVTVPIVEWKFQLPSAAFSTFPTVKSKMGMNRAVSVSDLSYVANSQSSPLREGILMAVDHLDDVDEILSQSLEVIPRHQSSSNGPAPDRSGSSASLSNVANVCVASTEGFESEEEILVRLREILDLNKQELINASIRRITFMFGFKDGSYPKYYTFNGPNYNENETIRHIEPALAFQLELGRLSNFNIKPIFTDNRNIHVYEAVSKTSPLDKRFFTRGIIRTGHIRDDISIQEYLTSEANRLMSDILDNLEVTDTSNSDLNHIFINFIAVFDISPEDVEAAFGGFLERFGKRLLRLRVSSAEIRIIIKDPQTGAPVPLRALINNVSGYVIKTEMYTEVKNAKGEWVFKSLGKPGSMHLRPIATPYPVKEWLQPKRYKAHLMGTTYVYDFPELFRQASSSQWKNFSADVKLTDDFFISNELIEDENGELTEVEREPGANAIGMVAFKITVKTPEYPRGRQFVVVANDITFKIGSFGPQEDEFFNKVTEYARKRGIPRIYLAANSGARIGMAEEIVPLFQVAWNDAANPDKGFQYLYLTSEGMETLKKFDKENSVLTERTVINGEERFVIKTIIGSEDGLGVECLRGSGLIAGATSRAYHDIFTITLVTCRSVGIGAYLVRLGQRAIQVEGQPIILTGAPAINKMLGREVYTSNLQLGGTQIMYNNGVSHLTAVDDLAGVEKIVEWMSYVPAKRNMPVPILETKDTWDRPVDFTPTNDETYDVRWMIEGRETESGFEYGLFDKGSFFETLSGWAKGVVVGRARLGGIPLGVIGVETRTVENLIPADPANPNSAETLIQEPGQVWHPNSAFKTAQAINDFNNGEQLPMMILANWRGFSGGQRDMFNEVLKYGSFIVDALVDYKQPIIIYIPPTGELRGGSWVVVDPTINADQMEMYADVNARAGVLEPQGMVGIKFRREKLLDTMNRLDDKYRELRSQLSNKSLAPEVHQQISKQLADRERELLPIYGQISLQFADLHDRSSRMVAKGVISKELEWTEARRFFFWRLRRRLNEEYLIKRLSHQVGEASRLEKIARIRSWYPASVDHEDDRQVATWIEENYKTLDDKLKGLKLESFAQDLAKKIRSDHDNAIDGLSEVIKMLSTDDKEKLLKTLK

SMILES	IC50 (fungal (fACC2); Table 2a) [nM]	IC50 (fungal (fACC2); Table 2b, additional results) [nM]	MIC (C. krusei; [1]) [µg/mL]	MIC (C. krusei; [2]) [µg/mL]	MIC (C. parapsilosis; [3]) [µg/mL]	MIC (C. parapsilosis; [4]) [µg/mL]	MIC (C. albicans; [5]) [µg/mL]	MIC (C. albicans; [6]) [µg/mL]	IC50 (human (hACC2); Table 2a) [nM]	IC50 (human (hACC2); Table 2b, additional results) [nM]	MIC (C. krusei; [7]) [µg/mL]	MIC (C. parapsilosis; [8]) [µg/mL]	MIC (C. albicans; [9]) [µg/mL]	MIC (C. krusei; [10]) [µg/mL]	MIC (C. parapsilosis; [11]) [µg/mL]	MIC (C. albicans; [12]) [µg/mL]
COc1ccc(F)cc1[C@H](Cn1c(=O)n(C(C)(C)C(N)=O)c(=O)c2c(C)c(-n3nccn3)sc21)OC[C@@H](C)C#N [Compound I-152]	0.4 to 1	0.3 to 1	2.1 to 4 (≈ 3.69 to 7.02 µM)	2.01 to 4 (≈ 3.53 to 7.02 µM)	2.1 to 4 (≈ 3.69 to 7.02 µM)	> 4.01	2.1 to 4 (≈ 3.69 to 7.02 µM)	1.01 to 2 (≈ 1.77 to 3.51 µM)	1 to 5	1 to 5						
COc1ccc(F)cc1[C@H](Cn1c(=O)n(C(C)(C)C(N)=O)c(=O)c2c(C)c(-n3nccn3)sc21)OC[C@H](C)C#N [Compound I-153]	0.4 to 1	0.3 to 1	2.1 to 4 (≈ 3.69 to 7.02 µM)	2.01 to 4 (≈ 3.53 to 7.02 µM)	2.1 to 4 (≈ 3.69 to 7.02 µM)	> 4.01	2.1 to 4 (≈ 3.69 to 7.02 µM)	1.01 to 2 (≈ 1.77 to 3.51 µM)	1 to 5	1 to 5						
COc1ccc(F)cc1[C@H](Cn1c(=O)n(C(C)(C)C(N)=O)c(=O)c2c(C)c(-n3nccn3)sc21)OCC(C)(C)C#N [Compound I-155]	1 to 5	1 to 5	1.1 to 2 (≈ 1.88 to 3.43 µM)	2.01 to 4 (≈ 3.44 to 6.85 µM)	2.1 to 4 (≈ 3.6 to 6.85 µM)	> 4.01	0.25 to 1 (≈ 0.428 to 1.71 µM)	1.01 to 2 (≈ 1.73 to 3.43 µM)	5 to 10	5 to 10						
COc1ccc(F)cc1[C@H](Cn1c(=O)n(C(C)(C)C(=O)O)c(=O)c2c(C)c(-n3nccn3)sc21)O[C@H]1CC[C@@H](C#N)CC1 [Compound I-156]	0.4 to 1	0.3 to 1							10 to 40	10 to 40	1.01 to 2 (≈ 1.65 to 3.28 µM)	2.01 to 4 (≈ 3.29 to 6.55 µM)	1.01 to 2 (≈ 1.65 to 3.28 µM)			
COc1ccc(F)cc1[C@H](Cn1c(=O)n(C(C)(C)C(=O)O)c(=O)c2c(C)c(-n3nccn3)sc21)O[C@H]1CC[C@H](C#N)CC1 [Compound I-157]	1 to 5	1 to 5		1.01 to 2 (≈ 1.65 to 3.28 µM)		2.01 to 4 (≈ 3.29 to 6.55 µM)		1.01 to 2 (≈ 1.65 to 3.28 µM)	5 to 10	5 to 10						
COc1ccc(F)cc1[C@H](Cn1c(=O)n(C(C)(C)C(=O)NC(C)C)c(=O)c2c(C)c(-n3nccn3)sc21)O[C@H]1CC[C@@H](C#N)CC1 [Compound I-158]	1 to 5	1 to 5							10 to 40	10 to 40	0.06 to 0.249 (≈ 0.0921 to 0.382 µM)	0.25 to 1 (≈ 0.384 to 1.53 µM)	0.25 to 1 (≈ 0.384 to 1.53 µM)	0.25 to 1 (≈ 0.384 to 1.53 µM)	1.1 to 2 (≈ 1.69 to 3.07 µM)	0.25 to 1 (≈ 0.384 to 1.53 µM)
COc1ccc(F)cc1[C@H](Cn1c(=O)n(C(C)(C)C(=O)NC(C)C)c(=O)c2c(C)c(-n3nccn3)sc21)O[C@H]1CC[C@H](C#N)CC1 [Compound I-159]	1 to 5	1 to 5							1 to 5	1 to 5	0.06 to 0.249 (≈ 0.0921 to 0.382 µM)	0.25 to 1 (≈ 0.384 to 1.53 µM)	0.25 to 1 (≈ 0.384 to 1.53 µM)	0.25 to 1 (≈ 0.384 to 1.53 µM)	0.25 to 1 (≈ 0.384 to 1.53 µM)	0.25 to 1 (≈ 0.384 to 1.53 µM)
COc1ccc(F)cc1[C@H](Cn1c(=O)n(C(C)(C)C(=O)NC(C)(C)C)c(=O)c2c(C)c(-n3nccn3)sc21)OCCCO [Compound I-160]	1 to 5	1 to 5	0.25 to 1 (≈ 0.405 to 1.62 µM)	1.01 to 2 (≈ 1.64 to 3.24 µM)	1.1 to 2 (≈ 1.78 to 3.24 µM)	2.01 to 4 (≈ 3.26 to 6.49 µM)	2.1 to 4 (≈ 3.41 to 6.49 µM)	2.01 to 4 (≈ 3.26 to 6.49 µM)	5 to 10	5 to 10						
COc1ccc(F)cc1[C@H](Cn1c(=O)n(C(C)(C)C(=O)NO)c(=O)c2c(C)c(-n3nccn3)sc21)OCCCO [Compound I-161]	0.4 to 1	0.3 to 1	2.1 to 4 (≈ 3.64 to 6.94 µM)	1.01 to 2 (≈ 1.75 to 3.47 µM)	2.1 to 4 (≈ 3.64 to 6.94 µM)	2.01 to 4 (≈ 3.49 to 6.94 µM)	2.1 to 4 (≈ 3.64 to 6.94 µM)	2.01 to 4 (≈ 3.49 to 6.94 µM)	1 to 5	1 to 5						
